Test results published in ChEMBL document CHEMBL4311992, “Discovery of 3-(((9H-purin-6-yl)amino)methyl)-4,6-dimethylpyridin-2(1H)-one derivatives as novel tubulin polymerization inhibitors for treatment of cancer” (Eur J Med Chem, 2019).
The source made the active and inactive calls. The rule behind the calls is not given here.

Assays:
Tubulin (Homo sapiens) = Tubulin (Homo sapiens) (UniProt P68371+Q9H4B7+P0DPH7+P68366+Q13509+Q71U36+P04350+Q3ZCM7+P07437+P68363+Q9BQE3+Q6PEY2+Q13885+Q9BVA1+Q9BUF5); assay: Disruption of microtubule network in human SW620 cells assessed as microtubule condensation at 50 nM incubated for 18 hrs by FITC/DAPI staining-based confocal microscopic analysis; format: cell-based
[1] = target: Serine/threonine-protein kinase 17A (Homo sapiens) (UniProt Q9UEE5); assay: Inhibition of recombinant full-length human DRAK1 assessed as residual activity at 10 uM using KKLNRTLSFAEPG as substrate measured after 40 mins in presence of [gamma33P]ATP by scintillation counting method
[2] = target: Tyrosine-protein kinase receptor TYRO3 (Homo sapiens) (UniProt Q06418); assay: Inhibition of human RSE (451 to end residues) using KVEKIGEGTYGVVYK as substrate measured after 40 mins in presence of [gamma33P]ATP by scintillation counting method; set-up: scale not given: the % may be the effect or the level left
SW-620 [3] = assay: Induction of apoptosis in human SW620 cells assessed as necrotic cells at 100 nM measured after 48 hrs by Annexin V-FITC/propidium iodide staining-based flow cytometry (reference value: 2.71%); format: functional
[4] = tested on: RAF proto-oncogene serine/threonine-protein kinase (Homo sapiens), P04049 [Y340D,Y341D]; assay: Inhibition of recombinant human c-RAF Y340D/Y341D mutant (360 to end residues) assessed as residual activity at 10 uM using inactive MEK1 as substrate measured after 40 mins in presence of [gamma33P]ATP by scintillation counting method
[5] = target: Serine/threonine-protein kinase WNK1 (Homo sapiens) (UniProt Q9H4A3); assay: Inhibition of human WNK1 (1 to 491 residues) using myelin basic protein as substrate measured after 120 mins in presence of [gamma33P]ATP by scintillation counting method; set-up: scale not given: the % may be the effect or the level left
[6] = tested on: Serine/threonine-protein kinase D1 (Homo sapiens), Q15139 [UNDEFINED MUTATION]; assay: Inhibition of recombinant full-length human PKCmu R135A mutant assessed as residual activity at 10 uM using KKLNRTLSVA as substrate measured after 40 mins in presence of [gamma33P]ATP by scintillation counting method
[7] = target: Serine/threonine-protein kinase pim-2 (Homo sapiens) (UniProt Q9P1W9); assay: Inhibition of recombinant human Pim2 (2 to end residues) assessed as residual activity at 10 uM using RSRHSSYPAGT as substrate measured after 40 mins in presence of [gamma33P]ATP by scintillation counting method
[8] = target: Serine/threonine-protein kinase 3 (Homo sapiens) (UniProt Q13188); assay: Inhibition of recombinant full-length human MST2 (2 to end residues) assessed as residual activity at 10 uM using myelin basic protein as substrate measured after 40 mins in presence of [gamma33P]ATP by scintillation counting method
[9] = tested on: Mast/stem cell growth factor receptor Kit (Homo sapiens), P10721 [D816H]; assay: Inhibition of recombinant human c-Kit D816H mutant (544 to end residues) assessed as residual activity at 10 uM using GGMEDIYFEFMGGKKK as substrate measured after 40 mins in presence of [gamma33P]ATP by scintillation counting method
[10] = target: Dual specificity mitogen-activated protein kinase kinase 1 (Homo sapiens) (UniProt Q02750); assay: Inhibition of recombinant full-length human MEK1 assessed as residual activity at 10 uM using unactive MAPK2 as substrate measured after 40 mins in presence of [gamma33P]ATP by scintillation counting method
[11] = target: Serine/threonine-protein kinase Nek6 (Homo sapiens) (UniProt Q9HC98); assay: Inhibition of recombinant human NEK6 (2 to end residues) assessed as residual activity at 10 uM using FLAKSFGSPNRAYKK as substrate measured after 40 mins in presence of [gamma33P]ATP by scintillation counting method
PLC-PRF-5 = assay: Antiproliferative activity against human PLC/PRF/5 cells assessed as reduction in cell viability after 72 hrs by MTT assay; format: functional, cell-based; settings: PLC-PRF-5, 72 h
[12] = target: Phosphorylase b kinase gamma catalytic chain, skeletal muscle/heart isoform (Homo sapiens) (UniProt Q16816); assay: Inhibition of recombinant full-length human PhKgamma1 assessed as residual activity at 10 uM using KKLNRTLSFAEPG as substrate measured after 120 mins in presence of [gamma33P]ATP by scintillation counting method
SW-620 [13] = assay: Cell cycle arrest in human SW620 cells assessed as up regulation of CDK1 expression up to 150 nM after 24 hrs by Western blot analysis; format: functional, cell-based
[14] = tested on: Angiopoietin-1 receptor (Homo sapiens), Q02763 [Q939H,Q940H]; assay: Inhibition of human Tie2 Q939H/Q940H mutant (771 to end residues) using poly(Glu, Tyr) 4:1 as substrate measured after 40 mins in presence of [gamma33P]ATP by scintillation counting method; set-up: scale not given: the % may be the effect or the level left
[15] = target: Serine/threonine-protein kinase SIK3 (Homo sapiens) (UniProt Q9Y2K2); assay: Inhibition of human SIK3 (1 to 307 residues) using KKKVSRSGLYRSPSMPENLNRPR as substrate measured after 40 mins in presence of [gamma33P]ATP by scintillation counting method; set-up: scale not given: the % may be the effect or the level left
[16] = target: Insulin receptor (Homo sapiens) (UniProt P06213); assay: Inhibition of recombinant human IR (1005 to 1310 residues) assessed as residual activity at 10 uM using KKSRGDYMTMQIG as substrate measured after 40 mins in presence of [gamma33P]ATP by scintillation counting method
SW-620 [17] = assay: Induction of apoptosis in human SW620 cells assessed as viable cells at 100 nM measured after 48 hrs by Annexin V-FITC/propidium iodide staining-based flow cytometry (reference value: 94.7%); format: functional; settings: SW-620, 48 h, read-out: Activity
[18] = target: Dual specificity tyrosine-phosphorylation-regulated kinase 2 (Homo sapiens) (UniProt Q92630); assay: Inhibition of recombinant full-length human DYRK2 assessed as residual activity at 10 uM using casein as substrate measured after 40 mins in presence of [gamma33P]ATP by scintillation counting method
[19] = target: Tyrosine-protein kinase Fyn (Homo sapiens) (UniProt P06241); assay: Inhibition of recombinant full-length human FYN assessed as residual activity at 10 uM using Cdc2 peptide as substrate measured after 40 mins in presence of [gamma33P]ATP by scintillation counting method
[20] = target: Mitogen-activated protein kinase 14 (Homo sapiens) (UniProt Q16539); assay: Inhibition of recombinant full-length human SAPK2a assessed as residual activity at 10 uM using myelin basic protein as substrate measured after 40 mins in presence of [gamma33P]ATP by scintillation counting method
[21] = target: Serine/threonine-protein kinase SBK1 (Homo sapiens) (UniProt Q52WX2); assay: Inhibition of recombinant full-length human SBK1 assessed as residual activity at 10 uM using KKLRRTLSVA as substrate measured after 120 mins in presence of [gamma33P]ATP by scintillation counting method

Sequence of Mitogen-activated protein kinase 14 (Homo sapiens) (Q16539 whole entry): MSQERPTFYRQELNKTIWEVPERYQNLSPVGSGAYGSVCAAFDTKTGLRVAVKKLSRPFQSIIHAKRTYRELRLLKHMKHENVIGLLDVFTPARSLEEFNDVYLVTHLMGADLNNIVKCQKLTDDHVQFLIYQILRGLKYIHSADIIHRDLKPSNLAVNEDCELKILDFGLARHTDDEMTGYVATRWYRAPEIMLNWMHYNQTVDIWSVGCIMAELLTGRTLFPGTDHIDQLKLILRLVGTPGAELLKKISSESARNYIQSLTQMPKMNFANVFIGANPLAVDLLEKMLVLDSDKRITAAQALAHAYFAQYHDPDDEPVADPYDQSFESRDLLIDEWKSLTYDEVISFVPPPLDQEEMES
Sequence of Serine/threonine-protein kinase SIK3 (Homo sapiens) (Q9Y2K2 whole entry, looked up, the tested form may be a part): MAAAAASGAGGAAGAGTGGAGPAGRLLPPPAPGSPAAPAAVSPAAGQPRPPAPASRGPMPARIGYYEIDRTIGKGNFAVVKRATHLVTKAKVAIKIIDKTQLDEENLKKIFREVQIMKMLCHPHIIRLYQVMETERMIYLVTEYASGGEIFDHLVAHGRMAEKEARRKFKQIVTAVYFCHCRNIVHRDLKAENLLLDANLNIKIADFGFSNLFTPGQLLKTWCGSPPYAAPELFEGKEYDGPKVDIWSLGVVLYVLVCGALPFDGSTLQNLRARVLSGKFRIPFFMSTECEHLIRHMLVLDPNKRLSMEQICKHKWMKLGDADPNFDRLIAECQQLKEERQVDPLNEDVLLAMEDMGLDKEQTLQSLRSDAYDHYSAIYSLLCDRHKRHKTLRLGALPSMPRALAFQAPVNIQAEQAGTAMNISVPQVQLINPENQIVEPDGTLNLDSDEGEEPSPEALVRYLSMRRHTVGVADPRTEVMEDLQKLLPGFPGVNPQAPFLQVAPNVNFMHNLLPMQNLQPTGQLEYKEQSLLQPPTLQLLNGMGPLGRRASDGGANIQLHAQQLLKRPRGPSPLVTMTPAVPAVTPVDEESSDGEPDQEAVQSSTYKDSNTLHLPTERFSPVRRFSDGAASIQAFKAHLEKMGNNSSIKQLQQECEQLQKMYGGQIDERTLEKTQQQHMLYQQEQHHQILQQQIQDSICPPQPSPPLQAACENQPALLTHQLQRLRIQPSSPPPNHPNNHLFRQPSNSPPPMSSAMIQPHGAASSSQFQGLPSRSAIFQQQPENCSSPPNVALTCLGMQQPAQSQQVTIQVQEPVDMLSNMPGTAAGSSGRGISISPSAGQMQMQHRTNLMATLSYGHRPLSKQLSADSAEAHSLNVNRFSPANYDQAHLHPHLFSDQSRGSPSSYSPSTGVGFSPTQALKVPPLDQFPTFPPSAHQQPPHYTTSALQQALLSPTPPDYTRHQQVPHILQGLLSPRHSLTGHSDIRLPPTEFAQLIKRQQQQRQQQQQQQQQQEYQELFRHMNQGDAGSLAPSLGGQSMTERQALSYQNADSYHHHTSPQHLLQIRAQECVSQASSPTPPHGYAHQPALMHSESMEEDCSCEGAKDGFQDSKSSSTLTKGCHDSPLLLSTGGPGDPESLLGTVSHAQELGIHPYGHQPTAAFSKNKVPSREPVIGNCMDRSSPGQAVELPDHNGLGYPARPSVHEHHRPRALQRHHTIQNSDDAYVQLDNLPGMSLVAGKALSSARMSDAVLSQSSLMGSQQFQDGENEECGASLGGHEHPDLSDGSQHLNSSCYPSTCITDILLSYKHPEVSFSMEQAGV
Sequence of Serine/threonine-protein kinase 17A (Homo sapiens) (Q9UEE5 whole entry): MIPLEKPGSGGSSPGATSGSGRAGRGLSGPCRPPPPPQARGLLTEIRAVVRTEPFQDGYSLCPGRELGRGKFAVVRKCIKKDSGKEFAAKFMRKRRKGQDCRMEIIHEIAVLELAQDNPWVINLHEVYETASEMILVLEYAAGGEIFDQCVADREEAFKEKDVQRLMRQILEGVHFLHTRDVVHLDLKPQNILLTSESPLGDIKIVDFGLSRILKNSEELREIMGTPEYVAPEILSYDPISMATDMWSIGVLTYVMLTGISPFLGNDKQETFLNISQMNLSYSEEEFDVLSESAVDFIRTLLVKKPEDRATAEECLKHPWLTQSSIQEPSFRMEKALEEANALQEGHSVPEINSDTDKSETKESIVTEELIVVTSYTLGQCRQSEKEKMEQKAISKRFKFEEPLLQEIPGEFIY
Sequence of Mast/stem cell growth factor receptor Kit (Homo sapiens), P10721 [D816H] (P10721 whole entry D816H): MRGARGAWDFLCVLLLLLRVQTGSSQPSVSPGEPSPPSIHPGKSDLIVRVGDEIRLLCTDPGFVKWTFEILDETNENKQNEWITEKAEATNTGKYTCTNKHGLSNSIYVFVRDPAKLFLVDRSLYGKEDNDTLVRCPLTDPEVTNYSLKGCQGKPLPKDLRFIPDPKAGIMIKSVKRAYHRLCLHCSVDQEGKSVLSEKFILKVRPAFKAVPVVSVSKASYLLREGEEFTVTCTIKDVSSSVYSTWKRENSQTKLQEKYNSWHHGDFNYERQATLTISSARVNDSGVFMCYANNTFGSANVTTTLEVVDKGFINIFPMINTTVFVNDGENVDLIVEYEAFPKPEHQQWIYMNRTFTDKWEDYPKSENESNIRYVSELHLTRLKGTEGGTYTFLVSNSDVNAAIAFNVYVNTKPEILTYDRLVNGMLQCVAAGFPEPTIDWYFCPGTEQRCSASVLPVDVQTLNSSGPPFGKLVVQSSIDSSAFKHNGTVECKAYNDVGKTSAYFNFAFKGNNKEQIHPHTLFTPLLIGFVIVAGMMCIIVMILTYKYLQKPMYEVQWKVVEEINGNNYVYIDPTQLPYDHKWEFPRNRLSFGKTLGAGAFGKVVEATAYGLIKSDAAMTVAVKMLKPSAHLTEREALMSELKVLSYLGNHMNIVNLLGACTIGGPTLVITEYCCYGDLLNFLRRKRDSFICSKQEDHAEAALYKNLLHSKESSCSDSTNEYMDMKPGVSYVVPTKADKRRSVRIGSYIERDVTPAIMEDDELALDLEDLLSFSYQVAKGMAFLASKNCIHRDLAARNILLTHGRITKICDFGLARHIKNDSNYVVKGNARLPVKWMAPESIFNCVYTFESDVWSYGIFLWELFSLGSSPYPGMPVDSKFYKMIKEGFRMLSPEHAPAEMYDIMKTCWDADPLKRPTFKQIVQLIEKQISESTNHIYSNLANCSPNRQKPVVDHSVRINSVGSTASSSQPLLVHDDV
Sequence of Dual specificity mitogen-activated protein kinase kinase 1 (Homo sapiens) (Q02750 whole entry): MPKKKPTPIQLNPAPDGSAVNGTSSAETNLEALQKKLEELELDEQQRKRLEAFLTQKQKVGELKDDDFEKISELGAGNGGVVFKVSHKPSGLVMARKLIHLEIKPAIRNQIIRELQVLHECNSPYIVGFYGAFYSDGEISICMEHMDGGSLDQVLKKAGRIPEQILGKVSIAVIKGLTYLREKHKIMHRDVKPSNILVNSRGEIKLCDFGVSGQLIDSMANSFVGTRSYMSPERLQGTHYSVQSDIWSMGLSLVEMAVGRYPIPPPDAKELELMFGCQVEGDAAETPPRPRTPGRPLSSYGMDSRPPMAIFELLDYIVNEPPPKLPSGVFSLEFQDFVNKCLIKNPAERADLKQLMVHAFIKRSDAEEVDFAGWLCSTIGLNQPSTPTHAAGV
Sequence of Dual specificity tyrosine-phosphorylation-regulated kinase 2 (Homo sapiens) (Q92630 whole entry): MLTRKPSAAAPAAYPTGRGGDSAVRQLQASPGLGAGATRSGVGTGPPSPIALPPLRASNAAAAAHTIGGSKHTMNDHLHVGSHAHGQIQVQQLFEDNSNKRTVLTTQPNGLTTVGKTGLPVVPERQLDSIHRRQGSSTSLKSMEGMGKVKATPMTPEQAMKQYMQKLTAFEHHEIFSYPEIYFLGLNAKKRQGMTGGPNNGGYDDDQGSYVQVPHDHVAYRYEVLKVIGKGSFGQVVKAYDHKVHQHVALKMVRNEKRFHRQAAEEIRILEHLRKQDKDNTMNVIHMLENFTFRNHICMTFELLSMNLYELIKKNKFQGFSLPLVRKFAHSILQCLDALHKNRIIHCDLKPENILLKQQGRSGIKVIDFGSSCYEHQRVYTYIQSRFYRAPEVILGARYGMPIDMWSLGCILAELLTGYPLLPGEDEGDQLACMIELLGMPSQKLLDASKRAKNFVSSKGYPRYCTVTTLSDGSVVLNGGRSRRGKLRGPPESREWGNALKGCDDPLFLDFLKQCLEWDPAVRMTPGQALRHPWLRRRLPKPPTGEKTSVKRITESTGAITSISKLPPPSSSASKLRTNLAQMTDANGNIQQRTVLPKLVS
Sequence of Serine/threonine-protein kinase 3 (Homo sapiens) (Q13188 whole entry): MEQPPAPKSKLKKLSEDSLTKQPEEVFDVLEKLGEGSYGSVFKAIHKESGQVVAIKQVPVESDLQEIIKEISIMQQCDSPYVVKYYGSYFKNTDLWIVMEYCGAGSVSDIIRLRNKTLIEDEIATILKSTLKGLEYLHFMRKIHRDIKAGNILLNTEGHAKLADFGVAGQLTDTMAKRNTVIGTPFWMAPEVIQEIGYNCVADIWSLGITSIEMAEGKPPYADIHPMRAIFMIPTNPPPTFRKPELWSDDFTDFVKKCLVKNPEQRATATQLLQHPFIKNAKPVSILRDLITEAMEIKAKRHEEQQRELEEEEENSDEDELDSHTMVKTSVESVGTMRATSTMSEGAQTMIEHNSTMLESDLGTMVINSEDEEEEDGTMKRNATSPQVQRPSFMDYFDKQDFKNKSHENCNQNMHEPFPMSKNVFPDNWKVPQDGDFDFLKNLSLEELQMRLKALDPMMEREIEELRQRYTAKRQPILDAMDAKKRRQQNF
Sequence of Phosphorylase b kinase gamma catalytic chain, skeletal muscle/heart isoform (Homo sapiens) (Q16816 whole entry, looked up, canonical isoform): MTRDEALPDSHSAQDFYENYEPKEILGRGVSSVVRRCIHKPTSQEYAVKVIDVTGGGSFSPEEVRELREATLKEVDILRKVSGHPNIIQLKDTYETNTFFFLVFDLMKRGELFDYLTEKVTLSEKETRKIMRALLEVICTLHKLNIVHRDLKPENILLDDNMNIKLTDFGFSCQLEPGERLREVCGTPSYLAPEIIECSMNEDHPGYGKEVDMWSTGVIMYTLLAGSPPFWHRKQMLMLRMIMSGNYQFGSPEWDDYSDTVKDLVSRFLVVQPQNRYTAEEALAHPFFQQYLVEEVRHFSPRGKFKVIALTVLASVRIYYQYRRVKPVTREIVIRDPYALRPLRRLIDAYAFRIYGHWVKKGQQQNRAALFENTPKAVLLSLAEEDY

With Cc1cc(C)c(CNc2nc(Cl)nc3c2ncn3C2CCCC2)c(=O)[nH]1 the Activity (Tubulin (Homo sapiens)) was “Active”, the Activity [1] was 91.5% and the Activity [2] was 126%. It also gave an Activity (SW-620 [3]) of 6.55%, an Activity [4] of 96.5% and an Activity [5] of 104%. The Activity [6] was 103%, the Activity [7] was 104% and the Activity [8] was 110%. For the same compound, the Activity [9] was 101%, the Activity [10] was 100% and the Activity [11] was 108%. For the same compound, the IC50 (PLC-PRF-5) was 286 nM, the Activity [12] was 104% and the Activity (SW-620 [13]) was “Active”. It also gave an Activity [14] of 75.5%, an Activity [15] of 119% and an Activity [16] of 116%. The viability at 0.1 µM (SW-620 [17]) was 66%, the Activity [18] was 113% and the Activity [19] was 98%. It also gave an Activity [20] of 109% and an Activity [21] of 107%.
